Results from ChEMBL document CHEMBL5137025, “Tuberculosis Drug Discovery: Challenges and New Horizons” (J Med Chem, 2022).
Values after ≈ are worked out from the molar mass of the structure shown.

Tests used:
[1] = system: Mycobacterium tuberculosis; assay: microbe, parasite or virus in culture; conditions: H37Rv
Description: Antibacterial activity against Mycobacterium tuberculosis H37Rv assessed as inhibition of bacterial growth

[2] = system: Mycobacterium tuberculosis; format: functional; conditions: H37Rv, time 6 day
[3] = system: Mycobacterium tuberculosis; format: functional; conditions: H37Rv, 168 h, time 7 day
[4] = system: Mycobacterium tuberculosis; assay: Bactericidal activity against Mycobacterium tuberculosis H37Rv in chronic Mtb infection BALB/c mouse model assessed as log10 CFU kill at 20 mg/kg, po qd via gavage measured after 4 weeks; format: functional
[5] = system: Mycobacterium tuberculosis; assay: Antibacterial activity against Mycobacterium tuberculosis assessed as inhibition of bacterial growth; format: functional
[6] = system: Mycobacterium tuberculosis; assay: Antibacterial activity against Mycobacterium tuberculosis in chronic Mtb infection mouse model assessed as reduction in log10 CFU at 100 mg/kg bid; format: functional
[7] = system: Mycobacterium tuberculosis; format: functional; conditions: dose 100 mg/kg; route po; time 4 weeks
[8] = system: Mycobacterium tuberculosis; assay: Antibacterial activity against Mycobacterium tuberculosis in acute Mtb infection BALB/c mouse model assessed as reduction in log10 CFU in lungs at 100 mg/kg for 3 weeks; format: functional
[9] = system: Mycobacterium tuberculosis; format: functional; conditions: H37Rv, 168 h, time 7 day; remark: listed apart in the source
[10] = Cytotoxicity against human MRC5 cells; format: toxicity, cell-based
[11] = system: Mycobacterium tuberculosis; assay: Antibacterial activity against non-replicating Mycobacterium tuberculosis assessed as inhibition of bacterial growth; format: functional
[12] = system: Mycobacterium tuberculosis; assay: Antibacterial activity against Mycobacterium tuberculosis Erdman in acute Mtb infection BALB/c mouse model assessed as reduction in log10 CFU in lungs at 200 mg/kg, po daily via gavage for 3 weeks; format: functional
[13] = system: Mycobacterium tuberculosis; format: functional; conditions: H37Rv
[14] = Aqueous solubility of compound in PBS at pH 7.4 incubated for 1 hr; format: physicochemical
[15] = Cytotoxicity against African green monkey Vero cells treated for 72 hrs by MTT assay; format: toxicity, cell-based; conditions: chlorocebus sabaeus
[16] = system: Mycobacterium tuberculosis; assay: Antibacterial activity against Mycobacterium tuberculosis in chronic Mtb infection BALB/c mouse model assessed as reduction in log10 CFU in lungs at 200 mg/kg for 4 weeks; format: functional
[17] = molecular target: T1, Voltage-gated inwardly rectifying potassium channel KCNH2 (Homo sapiens, UniProt Q12809)
[18] = system: HepG2; assay: Cytotoxicity against human HepG2 cells treated for 72 hrs by MTT assay; format: functional
[19] = Oral bioavailability in Swiss Webster mouse at 10 mg/kg measured for 0.25 to 24 hrs by LC-MS/MS analysis; format: ADME, organism-based; conditions: in vivo, time 0.25-24 hrs
[20] = system: Mycobacterium tuberculosis; format: functional; conditions: dose 50 mg/kg; route po; time 4 weeks
[21] = system: Mycobacterium tuberculosis; format: functional, H37Rv; conditions: dose 25 mg/kg; route po; time 8 weeks
[22] = system: Mycobacterium tuberculosis; format: functional; conditions: H37Rv, 168 h, time 7 day; remark: listed apart in the source
[23] = Oral bioavailability in mouse; format: ADME, organism-based; conditions: in vivo
[24] = system: HepG2; assay: Cytotoxicity against human HepG2 cells; format: functional
[25] = Solubility of the compound; format: physicochemical
[26] = system: Mycobacterium tuberculosis; format: functional, H37Rv; conditions: dose 100 mg/kg
[27] = molecular target: T1, Voltage-gated inwardly rectifying potassium channel KCNH2; assay: Inhibition of hERG by Qpatch assay; format: toxicity
[28] = system: Mycobacterium tuberculosis; format: functional, H37Rv; conditions: dose 300 mg/kg; time 8 day
[29] = Inhibition of bacterial InhA expressed in Escherichia coli BL21 (DE3) incubated for 1 hr by […]; set-up: species or system Bacteria
[30] = Half life in mouse; format: ADME, organism-based; conditions: in vivo

T1 sequence (Q12809 whole entry): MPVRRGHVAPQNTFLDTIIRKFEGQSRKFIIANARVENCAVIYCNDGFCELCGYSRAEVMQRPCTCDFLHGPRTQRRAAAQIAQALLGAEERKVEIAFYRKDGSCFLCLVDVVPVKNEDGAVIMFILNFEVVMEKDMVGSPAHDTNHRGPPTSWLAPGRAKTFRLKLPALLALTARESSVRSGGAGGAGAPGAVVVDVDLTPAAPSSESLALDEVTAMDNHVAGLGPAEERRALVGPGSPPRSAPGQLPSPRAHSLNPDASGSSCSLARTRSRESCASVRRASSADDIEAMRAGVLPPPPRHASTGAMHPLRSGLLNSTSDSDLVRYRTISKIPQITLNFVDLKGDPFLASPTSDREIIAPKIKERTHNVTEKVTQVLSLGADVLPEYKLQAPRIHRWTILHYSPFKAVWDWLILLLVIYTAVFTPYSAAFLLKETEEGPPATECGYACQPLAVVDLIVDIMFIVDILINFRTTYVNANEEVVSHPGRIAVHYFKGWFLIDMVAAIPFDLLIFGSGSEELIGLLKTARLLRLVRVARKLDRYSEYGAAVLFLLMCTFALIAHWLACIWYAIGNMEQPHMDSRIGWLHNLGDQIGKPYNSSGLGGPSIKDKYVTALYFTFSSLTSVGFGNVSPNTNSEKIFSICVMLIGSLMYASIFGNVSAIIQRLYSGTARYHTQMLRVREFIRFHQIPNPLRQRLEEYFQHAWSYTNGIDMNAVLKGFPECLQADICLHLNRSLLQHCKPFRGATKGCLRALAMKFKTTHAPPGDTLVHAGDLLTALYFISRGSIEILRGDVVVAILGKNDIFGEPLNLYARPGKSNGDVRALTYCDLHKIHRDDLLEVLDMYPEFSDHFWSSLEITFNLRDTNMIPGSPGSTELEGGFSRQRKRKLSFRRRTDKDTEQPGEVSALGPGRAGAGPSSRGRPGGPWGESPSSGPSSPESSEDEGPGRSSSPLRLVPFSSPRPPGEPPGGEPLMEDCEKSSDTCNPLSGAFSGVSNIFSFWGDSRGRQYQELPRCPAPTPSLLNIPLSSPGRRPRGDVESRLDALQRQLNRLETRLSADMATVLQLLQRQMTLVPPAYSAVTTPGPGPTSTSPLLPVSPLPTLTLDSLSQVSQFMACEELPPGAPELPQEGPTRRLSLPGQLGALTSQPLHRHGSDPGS

Which MIC80 [1] does the source give for `CC(Nc1nc(N2CCCCC2)nc2ccccc12)c1ccccc1` (configuration not stated) here?
Its MIC80 is 25 µM (≈ 8.31 µg/mL).

With `CNc1nc(SC)nc2ccccc12` as the molecule, how does the MIC [2] read?
The MIC was 0.13 µM (≈ 0.0267 µg/mL).

For `O=C(C1CCN(c2nnc(-n3cccc3)s2)CC1)N1CCC(Cc2ccccc2)CC1`, which MIC90 [1] is on record?
The MIC90 was 4 µM (≈ 1.74 µg/mL).

For `c1cc2c(s1)CCOC21CCN(Cc2ccc3c(c2)OCCO3)CC1`, which MIC90 [1] is on record?
The MIC90 was 0.3 µM (≈ 0.107 µg/mL).

What does the source list for `COc1ncccc1Nc1cc2nc3ccccc3n(-c3ccc(OC(F)(F)F)cc3)c-2c/c1=N\C1CCC(OC)CC1` (configuration not stated)?
MIC90 [3]: < 8 nM; Activity [4]: 1.7 log10CFU

For `CCNC(=O)Nc1nc2cc(-c3cnc(C(C)(C)O)nc3)c(F)c([C@H]3CCCO3)c2[nH]1`, which MIC90 [5] is on record?
The MIC90 was 0.07 µM (≈ 0.03 µg/mL).

For `CCNC(=O)Nc1nc2cc(-c3cnc(C(C)(C)OP(=O)(O)O)nc3)c(F)c([C@H]3CCCO3)c2[nH]1`, which Activity [6] is on record?
Its Activity is 2.5 log10CFU.

For `CC1(C)CCC(NC(=O)c2cc3c(Cl)cc(Cl)cc3[nH]2)CC1`, which MIC90 [1] is on record?
The MIC90 was 0.02 µM (≈ 0.00679 µg/mL).

And the Activity [7]?
The Activity was 3.1 log10CFU.

What does the source list for `CCOC(=O)NC(=O)c1ccsc1NC(=O)c1nc2ccccc2s1`?
Activity [8]: 2.9 log10CFU; MIC90 [1]: 0.23 µM (≈ 0.0863 µg/mL)

With `Fc1ccc(-c2nnc3sc(COc4ccccc4)nn23)cc1` as the molecule, how does the MIC [1] read?
The MIC was 25 µM (≈ 8.16 µg/mL).

What does the source list for `O=C(N/N=C/c1cccc(Oc2no[n+]([O-])c2S(=O)(=O)c2ccccc2)c1)c1ccncc1`?
MIC [9]: 1.6 µM (≈ 0.745 µg/mL); CC50 [10]: 30 µM; MIC90 [11]: 6.7 µM (≈ 3.12 µg/mL); Activity [12]: >6 log10CFU

With `O=C(N/N=C/c1ccc(Oc2no[n+]([O-])c2S(=O)(=O)c2ccccc2)cc1)c1ccncc1` as the molecule, how does the MIC [9] read?
Its MIC is 1 µM (≈ 0.465 µg/mL).

And the CC50 [10]?
Its CC50 is 43 µM.

And the MIC90 [11]?
Its MIC90 is 9.8 µM (≈ 4.56 µg/mL).

And the Activity [12]?
Its Activity is greater than 6 log10CFU.

For `CCOC(=O)c1c(-c2ccccc2)oc2ccc(O)c(CN3CCC(C)CC3)c12`, which MIC90 [1] is on record?
Its MIC90 is 2.5 µM (≈ 0.984 µg/mL).

For `O=c1c(NCc2ccccn2)c(-c2ccc(C(F)(F)F)cc2)c1=O`, which MIC80 [1] is on record?
Its MIC80 is 6.2 µM (≈ 2.06 µg/mL).

Which results are given for `Cc1ccn(C(C)c2nnc(Nc3ccn(Cc4c(F)cccc4Cl)n3)s2)n1` (configuration not stated)?
MIC90 [13]: 1 µM (≈ 0.418 µg/mL); solubility at 1 h [14]: 9 µM (≈ 3.76 µg/mL)

With `CCOC(=O)NC(=O)c1ccsc1NC(=O)c1nc2cnccc2s1` as the molecule, how does the CC50 at 72 h [15] read?
Its CC50 at 72 h is greater than 100 µM.

What about the Activity [16] of the same molecule?
The Activity was greater than 1.7 log10CFU.

What about the Activity [8] of the same molecule?
Its Activity is 2.3 log10CFU.

And the MIC90 [1]?
The MIC90 was 0.089 µM (≈ 0.0335 µg/mL).

And the IC50 [17]?
Its IC50 is greater than 30 µM.

And the CC50 [18]?
The CC50 was greater than 100 µM.

For `C[C@@H]1[C@H]2C[C@@H](C[C@H]1NC(=O)c1cc3c(F)cc(F)cc3[nH]1)C2(C)C`, which bioavailability [19] is on record?
Its bioavailability is 96%.

What about the Activity [20] of the same molecule?
Its Activity is 4.7 log10CFU.

And the Activity [7]?
The Activity was 3.6 log10CFU.

With `N=C(N)NC(=O)c1nc(-c2cc3ccccc3o2)c(N)nc1N` as the molecule, how does the MIC [1] read?
Its MIC is 4 µM (≈ 1.25 µg/mL).

With `CON=C1CCC(CN2CCN(c3nc(=O)c4cc(C(F)(F)F)cc([N+](=O)[O-])c4s3)CC2)CC1` (configuration not stated) as the molecule, how does the Activity [21] read?
The Activity was 1.8 log10CFU.

And the MIC90 [22]?
The MIC90 was 0.028 µM (≈ 0.014 µg/mL).

For `O=S1(=O)C[C@H](O)[C@@H](N2CCN(c3ccccc3Cl)CC2)C1`, which MIC [1] is on record?
The MIC was 0.76 µM (≈ 0.251 µg/mL).

Which MIC50 [1] does the source give for `FC(F)(F)c1ccc(Oc2ccc(Nc3ncnc4ccccc34)cc2)cc1` here?
Its MIC50 is 25 µM (≈ 9.53 µg/mL).

For `FC(F)(F)Oc1ccc(Oc2ccc(CN3CCC4(CC3)OCCc3sccc34)cc2)cc1`, which bioavailability [23] is on record?
Its bioavailability is 55%.

And the CC50 [24]?
Its CC50 is 36 µM.

What about the MIC90 [1] of the same molecule?
Its MIC90 is 0.06 µM (≈ 0.0285 µg/mL).

What about the solubility [25] of the same molecule?
The solubility was 6 µM (≈ 2.85 µg/mL).

With `Cc1csc([C@](C)(O)c2nnc(Nc3ccn(Cc4csc(C)n4)n3)s2)n1` as the molecule, how does the MIC90 [13] read?
Its MIC90 is 0.2 µM (≈ 0.0839 µg/mL).

What about the Activity [26] of the same molecule?
Its Activity is 3 log10CFU.

And the bioavailability [23]?
The bioavailability was 92%.

And the IC50 [27]?
Its IC50 is greater than 50 µM.

What about the solubility at 1 h [14] of the same molecule?
Its solubility at 1 h is 413 µM (≈ 173 µg/mL).

What about the CC50 [24] of the same molecule?
The CC50 was greater than 50 µM.

What about the Activity [28] of the same molecule?
The Activity was 3 log10CFU.

What about the IC50 [29] of the same molecule?
The IC50 was 7 nM.

And the half-life [30]?
Its half-life is 56 min.
